Laboratory results as given in patent US20060148030A1, “Nuclear receptor err y 3” (FUJISAWA PHARMACEUTICAL CO., LTD, priority 2002, published 2006).

T1: ERRγ1 (Homo sapiens, UniProt P62508)
T1 sequence (P62508 1-435 isoform P62508-2): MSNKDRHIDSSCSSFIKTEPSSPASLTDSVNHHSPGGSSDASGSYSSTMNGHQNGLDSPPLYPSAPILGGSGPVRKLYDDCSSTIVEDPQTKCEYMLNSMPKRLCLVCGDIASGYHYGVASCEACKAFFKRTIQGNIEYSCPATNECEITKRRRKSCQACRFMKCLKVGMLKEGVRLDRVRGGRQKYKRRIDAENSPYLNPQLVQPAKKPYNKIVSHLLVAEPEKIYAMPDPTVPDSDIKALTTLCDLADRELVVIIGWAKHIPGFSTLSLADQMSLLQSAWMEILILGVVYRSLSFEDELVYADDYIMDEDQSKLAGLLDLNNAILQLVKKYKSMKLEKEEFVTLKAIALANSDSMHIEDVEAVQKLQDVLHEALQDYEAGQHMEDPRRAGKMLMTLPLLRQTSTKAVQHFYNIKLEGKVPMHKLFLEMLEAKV

T2: VDR (Rattus norvegicus, UniProt P13053)
T2 construct: expressed in transfected cells; host or cells: CV-1 (African green monkey kidney)
T2 sequence (P13053 1-423): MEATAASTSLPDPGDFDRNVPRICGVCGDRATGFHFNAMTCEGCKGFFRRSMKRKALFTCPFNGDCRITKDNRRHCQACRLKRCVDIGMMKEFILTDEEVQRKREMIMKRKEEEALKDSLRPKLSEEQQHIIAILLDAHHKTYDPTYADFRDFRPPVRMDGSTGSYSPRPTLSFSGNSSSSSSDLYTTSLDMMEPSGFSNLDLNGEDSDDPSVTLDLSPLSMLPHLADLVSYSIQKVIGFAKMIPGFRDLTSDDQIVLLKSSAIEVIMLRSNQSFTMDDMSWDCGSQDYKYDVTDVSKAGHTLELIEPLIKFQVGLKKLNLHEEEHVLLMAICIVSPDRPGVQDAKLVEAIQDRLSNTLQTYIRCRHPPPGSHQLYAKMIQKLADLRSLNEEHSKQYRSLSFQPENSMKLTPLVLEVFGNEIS
T2 sequence (P19793 1-462 partner): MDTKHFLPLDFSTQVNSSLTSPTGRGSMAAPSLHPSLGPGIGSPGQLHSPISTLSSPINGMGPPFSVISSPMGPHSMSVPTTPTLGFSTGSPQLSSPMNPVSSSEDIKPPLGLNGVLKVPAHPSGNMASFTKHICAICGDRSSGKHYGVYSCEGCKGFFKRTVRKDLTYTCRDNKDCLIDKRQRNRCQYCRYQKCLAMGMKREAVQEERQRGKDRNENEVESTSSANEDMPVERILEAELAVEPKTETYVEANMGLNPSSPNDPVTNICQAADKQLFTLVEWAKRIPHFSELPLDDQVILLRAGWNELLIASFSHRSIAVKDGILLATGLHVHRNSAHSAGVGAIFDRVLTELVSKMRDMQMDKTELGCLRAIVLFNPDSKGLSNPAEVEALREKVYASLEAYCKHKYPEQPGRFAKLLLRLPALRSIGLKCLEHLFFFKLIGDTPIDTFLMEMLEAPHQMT

B1: ERRγ3: novel ERRγ isoform, nuclear receptor protein of 396 amino acids (SEQ ID NO: 2) lacking part of the DNA binding domain (protein, listed as Homo sapiens)
chain: MSNKDRHIDSSCSSFIKTEPSSPASLTDSVNHHSPGGSSDASGSYSSTMNGHQNGLDSPPLYPSAPILGGSGPVRKLYDDCSSTIVEDPQTKCEYMLNSMPKRLCLVCGDIASGYHYGVASCEACKAFFKRTIQGVRLDRVRGGRQKYKRRIDAENSPYLNPQLAQPAKKPYNKIVSHLLVAEPEKIYAMPDPTVPDSDIKALTTLCDLADRELVVIIGWAKHIPGFSTLSLADQMSLLQSAWMEILILGVVYRSLSFEDELVYADDYIMDEDQSKLAGLLDLNNAILQLVKKYKSMKLEKEEFVTLKAIALANSDSMHIEDVEAVQKLQDVLHEALQDYEAGQHMEDPRRAGKMLMTLPLLRQTSTKAVQHFYNIKLEGKVPMHKLFLEMLEAKV

What was measured:
ERRγ1 [1] = biological target: T1, ERRγ1; conditions: stated as known property; cited from earlier work
ERRγ1 [2] = biological target: T1, ERRγ1; conditions: stated as known property; cited from earlier work; remark: listed apart in the source
VDR = biological target: T2, VDR; test: Reporter gene assay, ERRγ3 coexisted with VDR, pGVP2-VDRE in CV-1 cells; assay type: cell-based; conditions: 5×10^−8 M calcitriol, FIG. 23
Description: Transfection was performed as follows: CV-1 cells were resuspended in DMEM supplemented with 10% fetal bovine serum, 2000 U/l of penicillin G, and 100 mg/l of streptomycin to a concentration of 2×10^5 cells/2.5 ml. This was then seeded to a 6-well plate at 2.5 ml per well, and incubated for 18-24 hours in a CO2 incubator at 37° C. and 5% CO2. 1 μg of each of the expression plasmids for the transcription factors, the luciferase reporter plasmid, and another luciferase reporter plasmid used for normalization of the measured values (pRL-TK), were dissolved in Opti-MEM (Gibco BRL), to a total of 150 μl. 7 μl of the transfection reagent LipofectAMINE 2000 (Gibco BRL) was diluted in 143 μl of Opti-MEM, and this was added to the mixture drop by drop while stirring. The mixture was incubated for 20 minutes. […] Luciferase activity was measured using the Dual-Luciferase™ Reporter Assay System (Promega). […] The protocol for measurement was as follows: 50 μl of Luciferase Assay Reagent II was added to each well, stirred for 0.3 seconds, and measured for one second. 50 μl of Stop&Glo™ Reagent was then added, stirred for 0.3 seconds, and measured for one second. The measured values for firefly luciferase activity were corrected by dividing by the value for the Renilla luciferase activity, the internal control. Average values and standard errors were calculated from triplicate samples. […]

Molecule | binding to ERRγ1 (ERRγ1 [1]) | inhibition of the transcriptional activation function of ERRγ1 (ERRγ1 [2]) | modifying effect on the transcriptional stimulation activity of VDR (VDR)
4-hydroxytamoxifen [reference compound] | capable of binding | inhibiting their transcriptional activation function | –
B1 | – | – | did not show a significant modifying effect
